Experimental data: publication PMC3968781 (Journal of the American Chemical Society, 2014)
One block for each compound: values may come before it.

Tests used:
Type in all cases: biochemical
[1] = target: T1, Nitrile hydratase (PtNHase), alpha subunit (Pseudonocardia thermophila, UniProt Q7SID2+Q7SID3); experiment: X-ray crystal structures
T1 sequence (Q7SID2 2-204): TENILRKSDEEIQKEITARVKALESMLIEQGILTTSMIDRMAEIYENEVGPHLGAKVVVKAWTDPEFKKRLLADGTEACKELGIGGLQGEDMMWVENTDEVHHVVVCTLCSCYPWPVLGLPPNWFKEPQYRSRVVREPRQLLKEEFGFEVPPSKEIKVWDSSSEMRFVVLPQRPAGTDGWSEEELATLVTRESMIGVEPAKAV
T1 sequence (Q7SID3 1-233): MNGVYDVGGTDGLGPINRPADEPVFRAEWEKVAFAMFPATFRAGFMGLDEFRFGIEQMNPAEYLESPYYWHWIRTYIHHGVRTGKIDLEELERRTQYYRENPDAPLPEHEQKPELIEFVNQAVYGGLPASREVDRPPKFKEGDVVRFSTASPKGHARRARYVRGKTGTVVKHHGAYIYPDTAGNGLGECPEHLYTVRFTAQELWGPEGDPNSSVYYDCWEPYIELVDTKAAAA

[2] = target: T1, Nitrile hydratase (PtNHase), alpha subunit; experiment: X-ray co-crystal structure
[3] = target: T1, Nitrile hydratase (PtNHase), alpha subunit; experiment: spectrophotometric hydration kinetics at […] nm

Ki [1]: 500 ± 100 nM
SMILES: CCCCB(O)O [BuBA, 1-butaneboronic acid]

Ki [2]: 0.04 ± 0.01 nM
SMILES: OB(O)c1ccccc1 [PBA, phenylboronic acid]

SMILES: C=CC#N [acrylonitrile]
Km [3]: 800 ± 100 µM
